Tests used:
[1] = biological target: c-MET kinase (Homo sapiens (Human), UniProt P08581); assay: Assay of small molecular compounds for inhibiting the activity of c-MET kinase (LANCE TR-FRET); assay type: biochemical; conditions: read-out: CMET IC50
Procedure, shortened: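 Eleven final concentrations from 2500 nM down to 0.042 nM, in 4% DMSO, were tested against human c-MET (2× stock 2 nM), with compound and enzyme premixed for 5 min. The phosphorylation reaction used 4× stock of 400 nM ULight-JAK-1 peptide and 40 μM ATP for 60 min at room temperature, then stop and detection steps. TR-FRET percent inhibition against positive and negative controls gave the IC50.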

[2] = tested on: Ba/F3-AXL cells; assay: Assay for inhibiting the proliferation of Ba/F3-AXL cells (CCK-8); assay type: cell-based; conditions: 72 hours of incubation, medium with 100 ng/mL hGas6, CCK-8
Procedure: The values were then imported into Graphpad Prism 5 software for curve fitting, and IC50 was calculated.

[3] = tested on: MHCC97H cells; assay: Assay for inhibiting the proliferation of MHCC97H cells (CCK-8); assay type: cell-based; conditions: Homo sapiens
Procedure, shortened: (§1)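 Cells seeded in 96-well plates overnight, then exposed 72 h to 9 three-fold dilutions of compound (0.25% DMSO final). Viability by CCK-8 (1-2 h at 37° C., OD 450 nm), survival normalized to untreated and cell-free blanks; IC50 by curve fitting.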

[4] = tested on: Ba/F3 LMNA-NTRK1 cells; assay: Assay for inhibiting the proliferation of Ba/F3 LMNA-NTRK1 cells (CCK-8); assay type: cell-based; conditions: Mus musculus, BaF3
Procedure, shortened: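 Viability was read as absorbance at 450 nm following 1–2 h CCK-8 incubation at 37 °C, relative to control and blank wells.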

[5] = tested on: EBC1 cells; assay: Assay for inhibiting the proliferation of EBC1 cells (CCK-8); assay type: cell-based; conditions: Homo sapiens, EBC-1
Procedure, shortened: as §1

c-MET kinase, sequence (P08581 25-1390): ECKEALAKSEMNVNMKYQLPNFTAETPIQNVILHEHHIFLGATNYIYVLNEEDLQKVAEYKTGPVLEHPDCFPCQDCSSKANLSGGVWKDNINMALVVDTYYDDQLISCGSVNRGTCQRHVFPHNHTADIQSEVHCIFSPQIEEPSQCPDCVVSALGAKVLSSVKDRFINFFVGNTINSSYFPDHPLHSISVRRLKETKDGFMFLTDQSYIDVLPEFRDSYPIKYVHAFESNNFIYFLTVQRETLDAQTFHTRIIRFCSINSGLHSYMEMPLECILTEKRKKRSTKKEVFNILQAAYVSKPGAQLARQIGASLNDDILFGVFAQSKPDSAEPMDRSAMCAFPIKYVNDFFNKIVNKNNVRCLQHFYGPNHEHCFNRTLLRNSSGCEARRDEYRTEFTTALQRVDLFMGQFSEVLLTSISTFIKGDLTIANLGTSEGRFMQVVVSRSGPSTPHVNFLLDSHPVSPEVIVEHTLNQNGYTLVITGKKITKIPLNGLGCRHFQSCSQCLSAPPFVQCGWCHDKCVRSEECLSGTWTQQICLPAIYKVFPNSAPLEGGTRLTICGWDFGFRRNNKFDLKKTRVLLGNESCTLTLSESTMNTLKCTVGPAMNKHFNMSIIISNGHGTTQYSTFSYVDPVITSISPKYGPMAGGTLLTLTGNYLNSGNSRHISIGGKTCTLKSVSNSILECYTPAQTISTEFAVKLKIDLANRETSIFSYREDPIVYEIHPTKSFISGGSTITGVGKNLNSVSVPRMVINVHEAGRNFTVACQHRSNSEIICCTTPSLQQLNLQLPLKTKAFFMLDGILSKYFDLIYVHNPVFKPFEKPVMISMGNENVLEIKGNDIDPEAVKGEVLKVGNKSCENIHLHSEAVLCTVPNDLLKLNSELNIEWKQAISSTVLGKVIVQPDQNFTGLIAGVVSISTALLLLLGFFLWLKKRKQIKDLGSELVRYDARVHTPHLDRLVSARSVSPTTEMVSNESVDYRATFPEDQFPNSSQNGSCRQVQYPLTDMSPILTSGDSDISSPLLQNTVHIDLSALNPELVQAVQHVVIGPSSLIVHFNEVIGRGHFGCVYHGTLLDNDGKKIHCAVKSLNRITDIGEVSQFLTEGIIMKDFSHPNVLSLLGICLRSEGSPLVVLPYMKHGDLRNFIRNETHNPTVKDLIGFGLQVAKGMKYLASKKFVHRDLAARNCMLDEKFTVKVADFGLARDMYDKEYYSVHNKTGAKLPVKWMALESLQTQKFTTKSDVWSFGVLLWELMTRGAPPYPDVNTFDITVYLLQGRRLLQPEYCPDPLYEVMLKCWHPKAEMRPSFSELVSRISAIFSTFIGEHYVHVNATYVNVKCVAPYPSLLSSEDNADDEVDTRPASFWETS

SMILES | IC50 [1] | IC50 [2] | IC50 [3] | IC50 [4] | IC50 [5]
CCOc1ccn(-c2ccc(F)cc2)c(=O)c1C(=O)Nc1ccc(Oc2ccnc3cc(OCCCN4CCOCC4)c4c(c23)OCCO4)c(Cl)c1 [Example 72, N-(4-((5-(3-morpholinopropoxy)-2,3-dihydro-[1,4]dioxino[2,3-f]quinolin-10-yl)oxy)-3-chlorophenyl)-4-ethoxy-1-(4-fluorophenyl)-2-oxo-1,2-dihydropyridine-3-carboxamide] | ≤ 50 nM | < 50 nM | ≤ 50 nM | < 50 nM | ≤ 50 nM
CCOc1ccn(-c2ccc(F)cc2)c(=O)c1C(=O)Nc1ccc(Oc2ccnc3cc(OCCCN4CCOCC4)c4c(c23)OCCO4)cc1Cl [Example 73, N-(2-chloro-4-((5-(3-morpholinopropoxy)-2,3-dihydro-[1,4]dioxino[2,3-f]quinolin-10-yl)oxy)phenyl)-4-ethoxy-1-(4-fluorophenyl)-2-oxo-1,2-dihydropyridine-3-carboxamide] | ≤ 50 nM | < 50 nM | ≤ 50 nM | < 50 nM | ≤ 50 nM
CN1CCN(CCCOc2cc3nccc(Oc4ccc(NC(=O)c5cn(C)c(=O)n(-c6ccc(F)cc6)c5=O)cc4F)c3c3c2OCCO3)CC1 [Example 74, N-(3-fluoro-4-((5-(3-(4-methylpiperazin-1-yl)propoxy)-2,3-dihydro-[1,4]dioxino[2,3-f]quinolin-10-yl)oxy)phenyl)-3-(4-fluorophenyl)-1-methyl-2,4-dioxo-1,2,3,4-tetrahydropyrimidine-5-carboxamide] | ≤ 50 nM | < 50 nM | 50 to 200 nM | < 50 nM | ≤ 50 nM
COCCCOc1cc2nccc(Oc3ccc(NC(=O)c4cn(C)c(=O)n(-c5ccc(F)cc5)c4=O)cc3F)c2c2c1OCCO2 [Example 80, N-(3-fluoro-4-((5-(3-methoxypropoxy)-2,3-dihydro-[1,4]dioxino[2,3-f]quinolin-10-yl)oxy)phenyl)-3-(4-fluorophenyl)-1-methyl-2,4-dioxo-1,2,3,4-tetrahydropyrimidine-5-carboxamide] | ≤ 50 nM | < 50 nM | ≤ 50 nM | < 50 nM | ≤ 50 nM

— US12202835B2, “Substituted aromatic ring-linked dioxinoquinazolines and dioxinoquinolines as kinase inhibitors” (BEIJING SCITECH-MQ PHARMACEUTICALS LIMITED, priority 2018, dated 2025)
